Read-outs that look alike come from different tables or passages of the source.
Columns and labels:
HaCaT cells = experiment: Alamar Blue cytotoxicity on HaCaT cells; assay type: cell-based; details: Homo sapiens, read-out: IC50 HaCaT
Method: (§1) To the growth media of all the cell lines, 1% penicillin/streptomycin and 10% FBS were added. The cell lines were cultured in standardized conditions (37 °C and 5% CO2) with the initiation of the experimental protocol once an 80–90% confluency was reached.
(§2) The spectrophotometric quantification (λemission = 590/35, λexcitation = 530/25) of resorufin by the metabolic-dependent conversion of the resazurin by the viable cells was achieved using the microplate reader Synergy 2 Multi-Mode. The cells were seeded in 100 µL of growth media in 96-well plates at the specified density (Ea.Hy296—5 × 10^3 cells/well, HaCaT—8 × 10^3 cells /well, and A375—7 × 10^3 cells /well) and were left overnight to attach. […] After 48 h of cultivation, the growth media was removed, and the AB assay was performed for the quantification of the viable cells post-exposure to the selected compounds. Three biological replicates were performed for each biological experiment with six technical replicates, using 0.2% DMSO as the negative control (NC) for data normalization (100% viability). The IC50 values were calculated based on the dose–cellular viability curve ratio obtained by fitting the experimental data with a 4-parameter logistic curve (SigmaPlot 11).

A375 cells = experiment: Alamar Blue cytotoxicity on A375 cells; assay type: cell-based, human; details: for IC50: Homo sapiens, read-out: IC50 A375; for Selectivity Index SIb: SIb = IC50 HaCaT/IC50 A375
Method: as §1, §2

Human VEGFR-2 (KDR) = molecular target: T1, Human VEGFR-2 (KDR) (Homo sapiens, UniProt P35968); experiment: In vitro VEGFR2 kinase inhibition assay; assay type: biochemical; details: for inhibition at 0.5 µM: read-out: VEGFR2 Kinase Inhibitory Activity % of Inhibition (500 nM); for IC50: isolated kinase domain, 45 min at 30 °C
T1 construct: purchased BPS Bioscience 40325
Method: The experimental assay was conducted according to the manufacturer’s instructions. […] The incubation time was set for 45 min at 30 °C. Inhibitory potential towards the kinase domain was quantified by luminescence detection, after the addition of the Kinase-Glo™ MAX reagent (Promega, Madison, WI, USA, catalog #v6071). After further incubation for an additional 15 min, the luminescence was recorded using a microplate reader Synergy 2 Multi-Mode.

Ea.Hy926 cells [1] = experiment: Alamar Blue cytotoxicity on Ea.Hy926 cells; details: for Selectivity Index SIa: SIa = IC50 HaCaT/IC50 EA.hy296; for IC50: read-out: IC50 EA.hy926, 48 h exposure, Alamar Blue
Method: as §1, §2

Ea.Hy926 cells [2] = experiment: Wound healing (scratch) assay; assay type: cell-based, human; details: 12 h
Method: Confluent Ea.Hy926 monolayers were formed by seeding the cells for 24 h in a 12-well plate incubated in a starvation medium. After the confluency was reached, the medium was removed and a scratch was performed using the sterile tip of a 100 µL pipette. Detached cells were removed by washing the cellular monolayers twice with DPBS, and then the cells were photographed individually (phase-contrast microscopy, 10x objective) to assess the wound area at the moment of exposure (T0). […] For each experiment, an image was captured 12 h post-exposure (T12), and the rate of Ea.Hy926 cell migration was quantitatively evaluated by the wound healing percentage (%) calculated by the formula (AT0 − AT12)/ AT0 × 100 [35]. The scratch areas at T0 (AT0) and T12 (AT12), respectively, were determined with the IKOSA Prisma Application Wound Healing (Scratch) assay (v2.2.0) and are expressed as square pixels (Px^2).

[3] = system: chick chorioallantoic egg membrane (CAM); experiment: Chorioallantoic egg membrane (CAM) assay; assay type: in vivo; details: 1 µM, 5 µM and 10 µM, 5-day protocol
Method: Eggs without deformities and weighing between 50 and 60 g were selected. The eggs were cleaned with 70% alcohol and incubated for 14 days in standard conditions (37.5 °C, humidity 65%). On the 4th day of incubation, approximately 10–12 mL of egg white (albumen) was extracted from the top of each egg using a medical syringe with a needle for the detachment of the egg membrane. On the 5th day, the eggs were checked for fertility using a light source, and a window large enough to reveal the vascular plexus was cut out with forceps. The window was then sealed with medical tape to maintain favorable conditions for embryonic development. Optimal ventilation conditions, temperature, and humidity were ensured throughout incubation to facilitate proper embryo growth. […] For this purpose, a transparent silicone ring was applied to the vascular plexus of the CAM using a tweezer. In this ring, 10 μL of each test sample was applied for 4 days. […] Pictures were taken daily (days 1–5 of exposure) to observe the effects of the samples on the angiogenic process, and the changes observed were noted. For microscopic analysis, a Zeiss SteREO Discovery.V8 stereomicroscope was used, coupled with a Zeiss Axiocam 105 digital camera, both connected to a computer. The images presented in this study were captured using the ZEN core 3.8 software. The scale bar from the images represents a measurement of 500 μm.

[4] = A-375, 48 h exposure, Alamar Blue

T1 sequence (P35968 805-1356): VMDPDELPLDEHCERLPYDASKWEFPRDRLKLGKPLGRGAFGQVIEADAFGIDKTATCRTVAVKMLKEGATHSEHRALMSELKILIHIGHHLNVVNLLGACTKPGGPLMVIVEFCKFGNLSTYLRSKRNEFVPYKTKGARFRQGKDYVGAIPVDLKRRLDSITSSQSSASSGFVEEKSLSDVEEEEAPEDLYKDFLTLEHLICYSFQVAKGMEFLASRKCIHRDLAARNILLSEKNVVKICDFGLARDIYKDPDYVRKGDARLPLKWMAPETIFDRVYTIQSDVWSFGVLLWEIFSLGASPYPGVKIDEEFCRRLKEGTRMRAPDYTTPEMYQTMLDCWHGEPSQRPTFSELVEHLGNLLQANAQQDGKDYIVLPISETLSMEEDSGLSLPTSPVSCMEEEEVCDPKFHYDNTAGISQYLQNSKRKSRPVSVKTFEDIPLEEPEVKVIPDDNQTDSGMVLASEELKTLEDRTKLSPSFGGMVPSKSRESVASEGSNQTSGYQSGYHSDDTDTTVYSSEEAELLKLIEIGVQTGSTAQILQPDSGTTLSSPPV

Question: With `COc1cc2ncnc(Oc3ccc(C=NNC(=S)Nc4ccc(Cl)cc4)cc3)c2cc1OC` [TSC4, N-(4-chlorophenyl)-2-(4-((6,7-dimethoxyquinazolin-4-yl)oxy)benzylidene)hydrazine-1-carbothioamide] as the molecule, how does the IC50 (HaCaT cells; 48 h exposure, Alamar Blue) read?
Answer: The IC50 was 15.9 µM.

Question: And the IC50 (A375 cells; [4])?
Answer: The IC50 was 14.8 µM.

Question: And the “Selectivity Index SIb” value (A375 cells)?
Answer: The value was 1.08.

Question: What about the inhibition at 0.5 µM (Human VEGFR-2 (KDR)) of the same molecule?
Answer: The inhibition at 0.5 µM was 40.5%.

Question: What about the “Selectivity Index SIa” value (Ea.Hy926 cells [1]) of the same molecule?
Answer: The value was 1.10.

Question: What about the IC50 (Ea.Hy926 cells [1]) of the same molecule?
Answer: The IC50 was 14.5 µM.

Question: For `COc1cc2ncnc(Oc3ccc(C=NNC(=S)Nc4ccccc4)cc3)c2cc1OC` [TSC5, N-phenyl-2-(4-((6,7-dimethoxyquinazolin-4-yl)oxy)benzylidene)hydrazine-1-carbothioamide], which IC50 (HaCaT cells; 48 h exposure, Alamar Blue) is on record?
Answer: Its IC50 is 16.4 µM.

Question: What about the IC50 (A375 cells; [4]) of the same molecule?
Answer: Its IC50 is 17.4 µM.

Question: What about the “Selectivity Index SIb” value (A375 cells) of the same molecule?
Answer: The value was 0.95.

Question: And the IC50 (Human VEGFR-2 (KDR))?
Answer: Its IC50 is 0.378 µM.

Question: And the inhibition at 0.5 µM (Human VEGFR-2 (KDR))?
Answer: Its inhibition at 0.5 µM is 71%.

Question: What about the motility inhibition potential (Ea.Hy926 cells [2]; 1.25-5 µM, versus 0.2% DMSO) of the same molecule?
Answer: The motility inhibition potential was 11.19–12.82%.

Question: And the “anti-angiogenic effect in CAM” value [3]?
Answer: The value was “pronounced decrease in CAM vascularization”.

Question: What about the “cytotoxic potential relative to sorafenib” value (Ea.Hy926 cells [1]; Ea.Hy296 cells, 48 h) of the same molecule?
Answer: Its value is 1.35 fold.

Question: And the “Selectivity Index SIa” value (Ea.Hy926 cells [1])?
Answer: Its value is 2.20.

Question: What about the IC50 (Ea.Hy926 cells [1]) of the same molecule?
Answer: Its IC50 is 7.47 µM.

Question: `COc1cc2ncnc(Oc3ccc(C=NNC(=S)NC(C)C)cc3)c2cc1OC` [TSC9, N-isopropyl-2-(4-((6,7-dimethoxyquinazolin-4-yl)oxy)benzylidene)hydrazine-1-carbothioamide] was tested. Which IC50 (HaCaT cells; 48 h exposure, Alamar Blue) did it give?
Answer: The IC50 was 86.8 µM.

Question: What about the IC50 (A375 cells; [4]) of the same molecule?
Answer: The IC50 was greater than 100 µM.

Question: And the IC50 (Human VEGFR-2 (KDR))?
Answer: The IC50 was 0.379 µM.

Question: And the inhibition at 0.5 µM (Human VEGFR-2 (KDR))?
Answer: Its inhibition at 0.5 µM is 70.5%.

Question: And the “reduction in the wound closure area” value (Ea.Hy926 cells [2]; highest evaluated concentration (TSC9 12.5 µM, TSC10 7.5 µM))?
Answer: The value was 25.63%.

Question: And the “anti-angiogenic effect in CAM” value [3]?
Answer: The value was “anti-angiogenic properties were also demonstrated across all three tested concentrations”.

Question: What about the “Selectivity Index SIa” value (Ea.Hy926 cells [1]) of the same molecule?
Answer: Its value is 6.90.

Question: And the IC50 (Ea.Hy926 cells [1])?
Answer: The IC50 was 12.6 µM.

Question: Which IC50 (HaCaT cells; 48 h exposure, Alamar Blue) does the source give for `COc1cc2ncnc(Oc3ccc(/C=N/NC(=S)Nc4cccc(Cl)c4Cl)cc3)c2cc1OC` [TSC10, (E)-N-(2,3-dichlorophenyl)-2-(4-((6,7-dimethoxyquinazolin-4-yl)oxy)benzylidene)hydrazine-1-carbothioamide] here?
Answer: The IC50 was 52.4 µM.

Question: What about the IC50 (A375 cells; [4]) of the same molecule?
Answer: Its IC50 is 28.6 µM.

Question: What about the “Selectivity Index SIb” value (A375 cells) of the same molecule?
Answer: Its value is 1.83.

Question: And the IC50 (Human VEGFR-2 (KDR))?
Answer: Its IC50 is 0.119 µM.

Question: And the inhibition at 0.5 µM (Human VEGFR-2 (KDR))?
Answer: Its inhibition at 0.5 µM is 89.1%.

Question: What about the “anti-angiogenic effect in CAM” value [3] of the same molecule?
Answer: Its value is “potent anti-angiogenic properties were observed”.

Question: And the “Selectivity Index SIa” value (Ea.Hy926 cells [1])?
Answer: The value was 4.09.

Question: What about the IC50 (Ea.Hy926 cells [1]) of the same molecule?
Answer: Its IC50 is 12.8 µM.

Question: For `COc1cc2ncnc(Oc3ccc(/C=N/NC(=S)Nc4cccc(C(F)(F)F)c4)cc3)c2cc1OC` [TSC2, N-(3-(trifluoromethyl)-phenyl)-2-(4-((6,7-dimethoxyquinazolin-4-yl)oxy)benzylidene)-hyrazine-1-carbothioamide], which IC50 (HaCaT cells; 48 h exposure, Alamar Blue) is on record?
Answer: Its IC50 is greater than 100 µM.

Question: And the IC50 (A375 cells; [4])?
Answer: Its IC50 is greater than 100 µM.

Question: And the IC50 (Human VEGFR-2 (KDR))?
Answer: Its IC50 is 0.341 µM.

Question: What about the inhibition at 0.5 µM (Human VEGFR-2 (KDR)) of the same molecule?
Answer: Its inhibition at 0.5 µM is 59.5%.

Question: What about the IC50 (Ea.Hy926 cells [1]) of the same molecule?
Answer: The IC50 was greater than 100 µM.

Question: Which results are given for `COc1cccc(NC(=S)NN=Cc2ccc(Oc3ncnc4cc(OC)c(OC)cc34)cc2)c1` [TSC8, N-(3-methoxyphenyl)-2-(4-((6,7-dimethoxyquinazolin-4-yl)oxy)benzylidene)hydrazine-1-carbothioamide]?
Answer: IC50 (HaCaT cells; 48 h exposure, Alamar Blue): > 100 µM; IC50 (A375 cells; [4]): > 100 µM; inhibition at 0.5 µM (Human VEGFR-2 (KDR)): 0%; IC50 (Ea.Hy926 cells [1]): > 100 µM

Question: With `COc1cc2ncnc(Oc3ccc(C=NNC(=S)Nc4ccc(F)c(F)c4)cc3)c2cc1OC` [TSC7, N-(3,4-difluorophenyl)-2-(4-((6,7-dimethoxyquinazolin-4-yl)oxy)benzylidene)hydrazine-1-carbothioamide] as the molecule, how does the IC50 (HaCaT cells; 48 h exposure, Alamar Blue) read?
Answer: Its IC50 is 53.8 µM.

Question: What about the IC50 (A375 cells; [4]) of the same molecule?
Answer: Its IC50 is greater than 100 µM.

Question: And the inhibition at 0.5 µM (Human VEGFR-2 (KDR))?
Answer: The inhibition at 0.5 µM was 21.1%.

Question: What about the “Selectivity Index SIa” value (Ea.Hy926 cells [1]) of the same molecule?
Answer: The value was 1.25.

Question: What about the IC50 (Ea.Hy926 cells [1]) of the same molecule?
Answer: Its IC50 is 43.2 µM.

Question: For `C=CCNC(=S)NN=Cc1ccc(Oc2ncnc3cc(OC)c(OC)cc23)cc1` [TSC1, N-allyl-2-(4-((6,7-dimethoxyquinazolin-4-yl)oxy)benzylidene)hydrazine-1-carbothioamide], which IC50 (HaCaT cells; 48 h exposure, Alamar Blue) is on record?
Answer: Its IC50 is roughly 100 µM.

Question: And the IC50 (A375 cells; [4])?
Answer: The IC50 was greater than 100 µM.

Question: What about the IC50 (Human VEGFR-2 (KDR)) of the same molecule?
Answer: Its IC50 is 0.389 µM.

Question: And the inhibition at 0.5 µM (Human VEGFR-2 (KDR))?
Answer: The inhibition at 0.5 µM was 52.7%.

Question: What about the “Selectivity Index SIa” value (Ea.Hy926 cells [1]) of the same molecule?
Answer: Its value is 2.00.

Question: Which results are given for `COc1cc2ncnc(Oc3ccc(C=NNC(=S)Nc4ccc(F)cc4)cc3)c2cc1OC` [TSC3, N-(4-fluorophenyl)-2-(4-((6,7-dimethoxyquinazolin-4-yl)oxy)benzylidene)hydrazine-1-carbothioamide]?
Answer: IC50 (HaCaT cells; 48 h exposure, Alamar Blue): 28.6 µM; IC50 (A375 cells; [4]): > 100 µM; IC50 (Human VEGFR-2 (KDR)): 0.239 µM; inhibition at 0.5 µM (Human VEGFR-2 (KDR)): 62.1%; Selectivity Index SIa (Ea.Hy926 cells [1]): 1.08; IC50 (Ea.Hy926 cells [1]): 26.5 µM

Question: Which results are given for `COc1cc2ncnc(Oc3ccc(C=NNC(=S)Nc4ccc(Cl)c(C(F)(F)F)c4)cc3)c2cc1OC` [TSC6, N-(4-chloro-3-(trifluoromethyl)phenyl)-2-(4-((6,7-dimethoxyquinazolin-4-yl)oxy)benzylidene)hydrazine-1-carbothioamide]?
Answer: IC50 (HaCaT cells; 48 h exposure, Alamar Blue): 23 µM; IC50 (A375 cells; [4]): 61 µM; Selectivity Index SIb (A375 cells): 0.38; inhibition at 0.5 µM (Human VEGFR-2 (KDR)): 0%; Selectivity Index SIa (Ea.Hy926 cells [1]): 1.40; IC50 (Ea.Hy926 cells [1]): 16.5 µM

Question: Which results are given for `CNC(=O)c1cc(Oc2ccc(NC(=O)Nc3ccc(Cl)c(C(F)(F)F)c3)cc2)ccn1` [Sorafenib, sorafenib, reference compound]?
Answer: IC50 (HaCaT cells; 48 h): 12.9 µM; IC50 (A375 cells; A-375, 48 h): 5.26 µM; inhibition of the mobility of Ea.Hy296 cells (Ea.Hy926 cells [2]; 5 µM): almost total inhibition; anti-angiogenic effect in CAM [3]: potent anti-angiogenic effect was observed across all three tested concentrations; IC50 (Ea.Hy926 cells [1]): 10.2 µM

Source: PMC11860020, “Rational Design and Synthesis of a Novel Series of Thiosemicarbazone-Containing Quinazoline Derivatives as Potential VEGFR2 Inhibitors” (Pharmaceutics, 2025)
